# Reference: patent US9144569B2, “Methods of administering an aromatase inhibitor, prostaglandin and GnRH for regulating ovulation in cattle” (UNIVERSITY OF SASKATCHEWAN, priority 2010, dated 2015)
# Legend:
# plasma LH = assay: Example I: plasma LH by double-antibody radioimmunoassay after single iv dose; format: in vivo, cattle; settings: for plasma LH concentrations compared to saline-treated controls: doses combined
# Protocol: Heifers in which a CL was detected during the initial examination were given […] cloprostenol (PGF, Estrumate™, Schering-Plough Animal Health, Pointe-Claire, QC, Canada) intramuscularly (im) to induce regression of the CL and to synchronize ovulation. Heifers were examined daily by transrectal ultrasonography to detect ovulation. Transvaginal ultrasound-guided follicular aspiration of follicles ≧5 mm was performed five to eight days after ovulation to synchronize wave emergence. Heifers were examined daily by transrectal ultrasonography to detect follicular wave emergence, which was expected 1 to 1.5 days after follicular ablation. Four days after follicular ablation (approximately 2.5 days after follicular wave emergence), and at the time follicular dominance becomes apparent, heifers were assigned randomly to the following treatment groups and given a single intravenous dose of 1) 500 μg/kg of letrozole (high dose group, n=9), 2) 250 μg/kg of letrozole (medium dose group, n=10), 3) 125 μg/kg of letrozole (low dose group, n=10), or 4) 20 ml of phosphate buffered saline (PBS control group, n=10). For practical purposes, the dose of letrozole was calculated based on an average weight of 400 kg for all heifers. The average oral dose used in women (2.5-5 mg per day for 5 days) was used to estimate the medium dose for cattle. The high and low doses were set as double and half the medium dose, respectively. The day of treatment was defined as Day 0. For intravenous injection, letrozole was prepared in 95% ethanol at a final concentration of 5 mg per ml, resulting in an injection volume of 10-40 ml. The experiment was performed in four replicates (n=2-3 per group per replicate) and each heifer was used only once.
# Statistical analyses were done using the Statistical Analysis System software package (SAS Learning Edition 9.1, 2006; SAS Institute Inc., Cary, N.C., USA). Time-series hormone data, plasma letrozole concentration, and follicular diameter profiles were analyzed by repeated measures, using the PROC MIXED procedure. The main effects were treatment (high, medium and low dose, and control), time, and their interactions.
# plasma FSH = assay: Example II: plasma FSH during 3-day letrozole regimen; format: in vivo, cattle; settings: 3-day regimen
# Protocol: Four days after follicular ablation, heifers were given 500 μg of cloprostenol (PGF, Estrumate, Schering-Plough Animal Health, Pointe-Claire, QC, Canada) intramuscularly (im) to induce regression of the CL and to synchronize ovulation. The experiment was performed in two replicates (n=20-27 per replicate) and each heifer was used only once. In replicate 1, heifers were assigned randomly at the time of ovulation (Day 0) to the following groups and given a 3-day regimen of letrozole from Days 1 to 3 (n=5), Days 3 to 5 (n=5), Days 5 to 7 (n=5), or no treatment (control group, n=5). In replicate 2, heifers were similarly assigned to groups and given letrozole from Days 1 to 3, (n=5), Days 3 to 5 (n=4), or Days 5 to 7 (n=4), but untreated control heifers were arranged in three sub-groups to serve as contemporaneous controls for each letrozole-group during intensive blood sampling periods (i.e., control Days 1 to 3, n=4; control Days 3 to 5, n=4; and control Days 5 to 7, n=5). For practical purposes, the total dose of letrozole (250 μg/kg) was calculated on the basis of an average weight of 350 kg for all heifers and administered intravenously in daily divided doses over 3 days (85 μg/kg per day). […]
# Plasma FSH concentrations were determined in duplicate using a double-antibody radioimmunoassay using NIDDK-anti-oFSH-1 primary antibody and expressed as USDA bovine FSH-I1 units. […]
smiles,measurement,setting,value
"N#Cc1ccc(C(c2ccc(C#N)cc2)n2cncn2)cc1 [Letrozole, letrozole]",plasma LH concentrations compared to saline-treated controls,"plasma LH; 4-day period after single iv dose, P=0.01",higher
same,plasma LH concentrations compared to saline-treated controls,"plasma LH; first 12 hours following single iv dose, P=0.05",higher
same,duration of elevated LH levels after treatment,plasma LH; single iv dose,at least 4 days
same,time after letrozole at which endogenous LH began to rise,plasma LH; single iv dose,2 h
same,plasma FSH levels compared with respective controls,plasma FSH,No differences
